{"source": "patent EP0553294B1", "about": "“THE MANUFACTURE OF COMPOSITIONS FOR THE TREATMENT OF CELL PRO[…]” (AMGEN INC., priority 1990, dated 1992)", "origin": "cited, not measured here", "system": "Kaposi's Sarcoma", "settings": "administered alone; general statement, no test described"}
{"smiles": "Cc1cn([C@H]2C[C@H](N=[N+]=[N-])[C@@H](CO)O2)c(=O)[nH]c1=O", "note": "[AZT, zidovudine]", "values": [{"measurement": "effectiveness on Kaposi's Sarcoma", "value": "not effective"}]}
